“Also recorded” adds a separate entry of the source. Marks after values point to notes of the source that are not given here.
Columns and labels:
P388 murine leukemia = test: in vivo anticancer activity in murine leukemia model, CD2F1 mice injected with P388 cells; settings: for Median survival time: 1 million P388 cells ip; for T/C % (median survival time of treated mice divided by that of control mice x 100): P388 ip
Description: Groups of CD2F1 mice are injected intraperitoneally (ip) with 1 million P388 cells. There were 10 mice per group. In the doxorubicin group 0.8 mg/kg is administered ip consecutively for 9 days on days 1-9 of the study. […] A control group is injected with vehicle. Median survival times are calculated for each group. Activity of a compound is expressed as the amount of prolonged survival (median survival of the treated group divided by the median survival time of the control group, multiplied by 100, T/C %).

[1] = cardiotoxicity evaluation in chronically treated rabbits (LVFS, hematocrit, isolated atria dF/dt, histopathology); settings: rabbit; for cardiotoxicity with chronic dosing / HCT % (hematocrit), Post / Histopathology Score / dF/dt (myocardial contractility of isolated atria) / FS % (left ventricular fractional shortening), Post: in vivo; for HCT % (hematocrit), Post / FS % (left ventricular fractional shortening), Post: iv
Description: Twenty-four age matched New Zealand white rabbits weighing 3.0 kg are randomized into four groups (N=6 rabbits/group). […] Doses of drug or vehicle are administered iv into an ear vein two times per week. Serum and blood samples are obtained weekly and M-mode echocardiology performed weekly or every other week to obtain left ventricular fractional shortening (LVFS) to assess cardiac function. Food consumption is measured daily and body weight is measured weekly. Control rabbits are fed the same amount of food as doxorubicin treated rabbits (pair fed). At sacrifice, apex and left ventricular free wall samples are obtained and preserved in 10% buffered formalin for histologic scoring and analysis via light microscopy. Left ventricular tissue samples are also obtained to assess cardiac levels of anthracyclines and metabolites.
At sacrifice, the heart is removed and two types of tissue are sampled from the heart, ventricular apex and left ventricular free wall, and stored in 10% formalin. Each tissue is prepared for three different stains: H&E, toluidine blue, and trichcrome. The tissues are scored (blind) using a modification of the Billingham scale. The scoring scale is from 0-4 with 0=<10% of cells or tissue lesioned, 1 to 10%-19% of cells or tissue lesioned, 2 to 20%-29% of cells or tissue lesioned, 3 to 30%-39% of cells or tissue lesioned, 4 to 40% or more cells or tissue lesioned. The ventricular apex and the left ventricular free wall are analyzed separately. Each receives a score for mononuclear infiltration, fibrosis, and cytoplasmic vacuolization. Thus, each rabbit has six scores, three for the apex (mononuclear infiltration, fibrosis, and cytoplasmic vacuolization) and three for the left ventricular free wall (mononuclear infiltration, fibrosis, and cytoplasmic vacuolization). Each score is obtained by looking at all three stains.
Also at sacrifice, left atria are isolated, divided in half and both halves studied to assess cardiac function in vitro in a tissue bath where afterload and preload remain constant throughout the study. Cardiac contractility is measured as the maximum rate of force development (dF/dt) in response to contractions induced by electrical stimulation via punctuate electrodes located at the base of each muscle preparation.

H9c2 cells = test: growth inhibition of non-cancerous H9c2 cells; assay type: cell-based; settings: Rattus norvegicus
[2] = optimum antitumor dose relative to doxorubicin; settings: in vivo
[3] = system: MCF-7 human mammary tumor cells; test: inhibition of growth of MCF-7 cells (tritiated thymidine incorporation); settings: for IC30 for inhibition of growth: MCF-7, 24 hours drug exposure; for fold increase in the cancer growth inhibition potency of paclitaxel: MCF-7, anthracycline at IC30 concentration
Description: (§1) The inhibitory effects of doxorubicin (I), 13-deoxydoxorubicin (II), 5-imino-13-deoxydoxorubicin (III), daunorubicin (IV), 13-deoxydaunorubicin (V), and 5-imino-13-deoxydaunorubicin (VI) on the growth of MCF-7 human mammary tumor cells and P388 murine leukemia cells are measured in vitro. The MCF-7 and P388 cell lines used for these studies are cultured and maintained utilizing the protocol from the American Type Culture Collection (ATCC) protocols. MCF-7 media was EMEM (Eagle Minimum
(§2) Essential Medium; ATCC) and P388 media is Dulbecco's modified Eagle's medium (DMEM, ATCC). Working media for MCF-7 and P388 is made by the addition of 50 ml FBS (fetal bovine serum, MCF-7) or 50 ml horse serum (ATCC, P388) to 450 ml EMEM media (MCF-7) or DMEM (P388). 4.5 g/L glucose (Sigma) is also added to the DMEM (P388). Five ml Penicillin/Streptomycin (P/S, Gibco) is added to the MCF-7 and P388 working media. Cells are grown at 37° C. in 5% CO2 for 1 week, and 25 ml fresh media is added. Cells are passaged when they reach a density of 1-2×10^6 cells/ml by transferring to a new flask containing fresh media.
(§3) Using sterile technique, MCF-7 cells are harvested from the T-75 flasks by removing and discarding the culture medium. 5 ml of 0.25% Trypsin-EDTA solution (Sigma) is added to each flask to de-attach the cells. The flask is placed in the incubator for 5-10 minutes to facilitate dispersal. 10 ml of complete growth medium is added, directly decanted into 50 ml tubes then centrifuged for 10 minutes at 200×g. P388 cells are harvested by directly decanting media into 50 ml tubes and centrifuging for 10 minutes at 200×g. The pellet (MCF-7 and P388) is resuspended in 5 ml and the cells dispersed by expelling gently through an 18 g needle fitted to a syringe. The cells are counted using a hemocytometer and diluted with media to 150,000 cells/ml. The diluted cells are pipetted into 96-well plates at a concentration of 15,000 cells/well in 100 μl. The plates are covered and incubated at 37° C. for 48 hours.
(§4) Dilutions of the anthracyclines and paclitaxel are made up in cell-specific serum-free media. The drugs at appropriate concentrations are added to all wells in 50 μl aliquots and the cells are grown in the presence of the drugs (anthracyclines/paclitaxel) for 24 hours. Tritiated thymidine (ICN) is diluted in serum-free cell-specific media to a concentration of 1 μCi/50 μl. All wells used for analysis are spiked with 50 μl aliquots of media containing tritiated thymidine. Following a 4-hour exposure to isotope, tritiated thymidine incorporation into DNA is measured by hypotonic lysis of cells with deionized water and collection of cellular contents onto Whatman GF-C filters using a Brandel cell harvester. Prior to harvesting MCF-7 cells, the media is aspirated, 150 μL of 0.25% Trypsin-EDTA is added to each well to de-attach the cells. Filters are allowed to dry, placed into 7 ml scintillation vials containing 5 ml scintillation cocktail and counted in a scintillation counter. In preliminary experiments, the concentrations of anthracyclines that would produce a 30% inhibition of growth (inhibitory concentration 30, IC30) on MCF-7 cells and 10% inhibition of growth (IC10) on P388 cells are determined.

[4] = system: P388 murine leukemia cells; test: inhibition of growth of P388 cells in vitro (tritiated thymidine incorporation); settings: for IC10 for inhibition of growth: P388, 24 hours drug exposure
Description: as §1, §2, §3, §4

breast cancer = breast cancer patients; cited from earlier work
[5] = H9c2, H9c2, anthracycline alone
[6] = H9c2, H9c2, in the presence of weak growth inhibitory concentrations of paclitaxel (IC10)

Structure (SMILES)	Median survival time (P388 murine leukemia; drug ip on days 1-9, n = 10) [days]	T/C % (median survival time of treated mice divided by that of control mice x 100) (P388 murine leukemia; drug ip on days 1-9, n = 10)	cardiotoxicity with chronic dosing [1]	HCT % (hematocrit), Post [1]	IC30 for inhibition of growth [3] [nM]	fold increase in the cancer growth inhibition potency of paclitaxel [3] [fold]	IC10 for inhibition of growth [4] [nM]	also measured
COc1cccc2c1C(=O)c1c(O)c3c(c(O)c1C2=O)C[C@@](O)(CCO)C[C@@H]3OC1CC(N)C(O)C(C)O1 (stereo partly drawn) [Compound II, 13-deoxydoxorubicin]	27	142* %	devoid of cardiotoxicity	23.8* %	450	20	1100	Median survival time (P388 murine leukemia; drug ip on days 1-9, n = 10, listed as 13-deoxydoxorubicin): significant increase in median survival time; IC50 (H9c2 cells; [5]): 700 nM; IC50 (H9c2 cells; [6]): 400 nM; optimum antitumor dose relative to the dose of doxorubicin [2]: approximately twice
COc1cccc2c1C(=N)c1c(O)c3c(c(O)c1C2=O)C[C@@](O)(CCO)C[C@@H]3OC1CC(N)C(O)C(C)O1 (stereo partly drawn) [Compound III]	27	142* %	devoid of cardiotoxicity	33.3* %	750	220	3500	IC50 (H9c2 cells; [5]): 1500 nM; IC50 (H9c2 cells; [6]): 210 nM; optimum antitumor dose relative to the dose of doxorubicin [2]: up to 7 times
CC[C@]1(O)Cc2c(O)c3c(c(O)c2[C@@H](OC2CC(N)C(O)C(C)O2)C1)C(=O)c1c(OC)cccc1C3=O (stereo partly drawn) [Compound V, 13-deoxydaunorubicin]	–	–	–	–	645	–	700	–
CC[C@]1(O)Cc2c(O)c3c(c(O)c2[C@@H](OC2CC(N)C(O)C(C)O2)C1)C(=N)c1c(OC)cccc1C3=O (stereo partly drawn) [Compound VI]	–	–	–	–	875	–	1700	–
COc1cccc2c1C(=O)c1c(O)c3c(c(O)c1C2=O)C[C@@](O)(C(C)=O)C[C@@H]3OC1CC(N)C(O)C(C)O1 (stereo partly drawn) [Daunorubicin (IV), daunorubicin]	–	–	–	–	750	–	300	–
COc1cccc2c1C(=O)c1c(O)c3c(c(O)c1C2=O)C[C@@](O)(C(=O)CO)C[C@@H]3OC1CC(N)C(O)C(C)O1 (stereo partly drawn) [Doxorubicin (I), doxorubicin]	28	147* %	profound cardiotoxicity	27.5* %	100	2.8	250	T/C % (median survival time of treated mice divided by that of control mice x 100) (P388 murine leukemia; drug ip on days 1-9, n = 10, listed as Doxorubicin): 147%; Histopathology Score ([1]; New Zealand white): 1.81*,^+; dF/dt (myocardial contractility of isolated atria) ([1]; New Zealand white): 15.1*,^+ gms/sec; FS % (left ventricular fractional shortening), Post ([1]; New Zealand white): 27.4*,^+ %; cumulative cardiotoxic dose ([1]; 1.25 mg/kg twice/week for 7 weeks): 17.5 mg/kg; Histopathology Score [1]: significantly increased; dF/dt (myocardial contractility of isolated atria) [1]: significantly reduced; FS % (left ventricular fractional shortening), Post [1]: statistically significant decrease; IC50 (H9c2 cells; H9c2, anthracycline alone): 210 nM; anticancer response rate (breast cancer): 35-50%
CC(=O)O[C@H]1C(=O)[C@@]2(C)[C@H]([C@H](OC(=O)c3ccccc3)[C@]3(O)C[C@H](OC(=O)[C@H](O)[C@@H](NC(=O)c4ccccc4)c4ccccc4)C(C)=C1C3(C)C)[C@]1(OC(C)=O)CO[C@@H]1C[C@@H]2O [Paclitaxel, paclitaxel]	–	–	–	–	–	–	–	anticancer response rate (breast cancer): 32-62%; growth inhibitory effect ([3]; MCF7, paclitaxel alone, 1 to 50 nM): no growth inhibitory effect; IC50 of paclitaxel for inhibition of growth ([4]; P388, paclitaxel alone or in the presence of the anthracycline at its IC10 concentration, mean ± standard error, n = 3): no inhibitory activity; also recorded: Inactive; growth inhibitory effect ([4]; P388, paclitaxel alone, concentrations up to 2000 nM): no growth inhibitory effect
